# Values quoted from earlier work in patent US20230285429A1, “CANNABINOID ACID FORMULATIONS, DELIVERY SYSTEMS, AND METHODS OF USE” (Flora Growth U.S. Holdings Corp., priority 2022, published 2023).
# Test system: pseudovirus expressing the spike protein
# Settings: human epithelial cell lines, CBGA or CBDA individually
row,SMILES,infection by pseudovirus expressing the spike protein
1,"C=C(C)[C@@H]1CCC(C)=C[C@H]1c1c(O)cc(CCCCC)c(C(=O)O)c1O [CBDA, cannabidiolic acid]",reduce infection
2,"CCCCCc1cc(O)c(C/C=C(\C)CCC=C(C)C)c(O)c1C(=O)O [CBGA, cannabigerolic acid]",reduce infection
